Here are results for 5 molecules from patent US20200003760A1, “IN-VITRO METHODS FOR CLASSIFYING DRUGS ACCORDING TO THEIR POTENTIAL TO CAUSE LIVER CELL INJURY” (Board of Trustees of Michigan State University, priority 2018, published 2020).

The conditions of data set [1]: cited from earlier work; for True classification: IDILI in human patients; for IDILI liability: criteria of Xu et al. (2008).
The conditions of data set [2]: maximal plasma concentration after pharmacologic dosing in human patients; cited from earlier work.
A further data set deals with HepG2 cells. The experiment in a line: Drug/cytokine-induced cytotoxicity (% LDH release) concentration-response in HepG2 cells. Format: cell-based, human. Also on record: key to Deltadiff: LDH release percentage points (drug/TNF Delta minus drug/VEH Delta). As to conditions: for R10 / R10 IFN / R10 TNF / R10 TNF/IFN: 10 percent increase in LDH response above min, 0 when D10 = 0; for R10 / D10 (LDH rise of at least 10 points, yes/no) / Emax / EC10: drug alone (VEH); for R10 IFN: with IFN; for R10 TNF: with TNF; for R10 TNF/IFN / EC10 TNF/IFN: with TNF and IFN; for Deltadiff: Delta of drug/TNF curve minus Delta of drug/VEH curve (LDH percentage); for cytotoxic interaction of drug with TNF: TNF 10 ng/ml; for cytotoxicity of drug on its own (LDH release): absence of cytokines; for D10 (LDH rise of at least 10 points, yes/no) / Emax: Homo sapiens, HepG2; for TNF change: D10TNF − D10VEH; for EC10: value corresponding to 10% of Delta (max-min); for EC10 TNF: with TNF 10 ng/ml. The method, then:
Cells were passed or used for experiments when they reached approximately 80% confluence. Cells were used at passage 6-16.
HepG2 cells were plated at a density of 4×10^4 cells per well in black-walled, 96-well, tissue culture plates and were allowed to attach overnight before being treated with compounds. Drugs were reconstituted in vehicles consisting of sterile water or DMSO (concentration less than 0.5%). Cells were treated with various concentrations of the drug or its vehicle (control) alone or in combination with the cytokines TNF (10 ng/ml) and/or IFN (10 ng/ml) or their PBS vehicle (VEH). Cytotoxicity was evaluated as lactate dehydrogenase (LDH) activity released from the cells into culture medium using the Homogeneous Membrane Integrity Assay kit from Promega (Madison, Wis.).
Concentration-response curves were generated for 24 drugs, 14 of which are associated with human IDILI and 10 of which are not. […] This was necessary because four-parameter logistic modeling used in the statistical analysis requires well defined, sigmoidal concentration-response curves. Cells were exposed to drug/cytokine combinations for 24 hours. For analysis of drug concentration-response data, concentrations of each drug were expressed as a fraction of its Cmax.
Defining covariates: four-parameter logistic model. In the first phase, variables (potential covariates) for use in the classification analysis were defined from the analysis of drug concentration-response data. Initially, a one-way analysis of variance (ANOVA) was used as an omnibus test to determine if a particular treatment (e.g. drug alone or in combination with TNF and/or IFN) caused a significant change in LDH release relative to baseline (i.e., LDH release in the absence of drug, hereafter designated “min”). The criterion for significance for the ANOVA was set at α=0.01. A 1% level of significance was used to rule out more vigorously marginal relationships between concentration and response.
where LDH(x) is the percentage of LDH released at a given concentration x; x=[drug]/Cmax; min=the % LDH release at 0 drug concentration (i.e., baseline); and max=the maximal LDH response (i.e., maximum % LDH release).
where D10 is a categorical variable related to reaching a threshold LDH response above which a drug is classified as positively associated with IDILI. D10 is defined as 0 if Delta<10% LDH release and as 1 if Delta≥10% LDH release.
The base covariate R10 represents the [drug]/Cmax value associated with an increase in 10 LDH percentage points above min for a particular treatment condition and was determined by the equation:
R10 was considered to be 0 when the Delta<10% LDH (i.e. when D10=0).
EC50 quotient, EC10 quotient and R10 quotient represent the ratio between the EC50, EC10 or R10 of the drug/cytokine concentration-response curve and the respective value for the drug/VEH concentration-response curve. In some instances, the value derived from this calculation is indeterminate (i.e. when the denominator=0). In order to incorporate the quotient values into the classification models described below, the categorical variable “Q” was used to eliminate the possibility of the quotient being indeterminate. Q is defined as 0 if Delta VEH and/or Delta cytokine is <10% LDH and 1 if both Delta VEH and Delta cytokine are ≥10% LDH. […] The same condition was applied for calculation of EC10 quotient and R10 quotient.
Deltadiff represents the difference between the Delta of the drug/cytokine concentration-response curve and the Delta of the drug/VEH curve. In other words, Deltadiff=(Delta cytokine)−(Delta VEH). FIG. 1 graphically illustrates several of the covariates defined above. […] In addition to the covariates derived from the concentration-response curves, the maximal therapeutic plasma drug concentration (Cmax) in human patients was used in some models (Table 1).

The nature of data set [3]: Logistic regression classification model: probability that a drug is associated with IDILI. Further details: species or system human. Particulars: for Estimated probability: probability that drug is associated with IDILI, covariates Deltadiff, EC50 VEH, EC50 TNF, Delta VEH, Cmax, optimal cutoff 0.46. An excerpt:
Classification modeling using defined covariates. In the second phase of analysis, classification models were developed using logistic regression with covariates as independent variables in the analysis and known IDILI classification as the dependent variable. A model selection process was used to determine if a covariate or set of covariates is associated with IDILI liability. Covariates were first evaluated individually to determine how well a particular covariate classified drugs according to IDILI liability, and then covariates were evaluated in combination. Combinations of covariates were selected to maximize the ability of the model to distinguish between drugs associated or not with IDILI. Specifically, covariates that describe changes in efficacy (Delta, Deltadiff, etc.) were paired with covariates that describe changes in potency (EC50, EC10, R10, etc.) to find covariate combinations that led to models that most accurately discriminated between drugs that are and are not associated with IDILI. […] The logistic regression models follow the equation: […]
where ŷi is the calculated (predicted) probability that drug i with a vector of covariates xi is associated with IDILI. The β coefficients (β0, the regression intercept; and βi, the regression slopes for model covariates, xi) were derived from the logistic regression models using 1) combinations of the covariates (xi) generated by concentration-response modeling for each of the 24 drugs evaluated in this study, and 2) the true IDILI classification for the dependent variable yi (i.e., 1 for IDILI+drugs and 0 for IDILI-drugs). […] This occurs when a covariate almost perfectly separates observations into the appropriate categories. […] When separation or quasi-complete separation occurs, use of the standard method (i.e., maximum likelihood estimation) provides biased, unreliable estimates of βi.
Receiver operating characteristic (ROC) analysis. In the third phase of the statistical approach, the classification models, generated as logistic regression models using single covariates or combinations of covariates, were evaluated by ROC analysis to determine which model and corresponding sets of covariates led to the most accurate classification of drugs according to their potential to cause IDILI. An ROC curve was created for each model by graphing the true positive rate (sensitivity; i.e., proportion of drugs correctly classified as associated with IDILI) against the false positive rate (1-specificity; i.e., proportion of drugs incorrectly classified as associated with IDILI) at various probability cutoff thresholds (k). […] An area under the curve (AUC) and confidence interval was computed for each ROC curve (where each logistic regression model has one ROC curve). […] Corresponding to each ROC curve is an optimal threshold value (k*), the threshold yielding the highest point of accuracy on the curve (i.e., the point nearest the point […] on the curve). Thus, each ROC curve has a corresponding AUC and an optimal cutoff (k*) that corresponds to the highest point of accuracy on that ROC curve.

Where [4] appears, read: categorical, Delta threshold 10 LDH percentage points.
Setting [5] is: maximal LDH response, 24 h, read-out: max.
The mark [6] stands for this setting: value corresponding to 10% of Delta, NA = no significant increase.
[7] abbreviates: categorical, Delta threshold 10 LDH percentage points, read-out: D10.

Entries after “also recorded” stand apart in the source; their conditions may differ. Like-named read-outs stand apart in the source and are kept apart here. Where only a bound is given, the exact number is not on record here.

Regarding `COc1cccc2c1C(=O)c1c(O)c3c(c(O)c1C2=O)C[C@@](O)(C(=O)CO)C[C@@H]3O[C@H]1C[C@H](N)[C@H](O)[C@H](C)O1` [Doxorubicin], in data set [1], the True classification result was “IDILI+” and the IDILI liability result is reported as “IDILI+”. In data set [2], the Cmax is 1000 nM. In addition, in the data set on HepG2 cells, the R10 was 12.4 [drug]/Cmax, the “R10 IFN” value is 9.7 [drug]/Cmax, the “R10 TNF” value is 2.0 [drug]/Cmax and the “R10 TNF/IFN” value is 0.7 [drug]/Cmax. The Deltadiff with HepG2 cells is given as −15.2. In addition, in the data set with HepG2 cells (HepG2, 24 h), the “cytotoxic interaction of drug with TNF” value is “TNF significantly enhanced the cytotoxicity” and the “cytotoxicity of drug on its own (LDH release)” value (from here on “cytotoxicity of drug on its own”) is reported as “statistically significant increase in LDH release”. For the same molecule, the D10 (LDH rise of at least 10 points, yes/no) with HepG2 cells (setting [4]) is greater than 10%. Further, the Emax in the data set on HepG2 cells (setting [5]) amounted to 113%. In addition, the TNF change in the data set with HepG2 cells (categorical) is listed as 0. Also, the EC10 in the data set on HepG2 cells (NA = no significant increase) was 12.0 [drug]/Cmax. Also, in the data set with HepG2 cells (setting [6]), the “EC10 TNF” value was 1.7 [drug]/Cmax and the “EC10 TNF/IFN” value is 0.6 [drug]/Cmax. In addition, the Estimated probability in data set [3] is 0.8839.

`CN(C)CCCN1c2ccccc2Sc2ccc(Cl)cc21` [Chlorpromazine]: in data set [1], the True classification entry was “IDILI+” and the IDILI liability entry was “IDILI+”. For the same molecule, the Cmax in data set [2] was 840 nM. In the data set with HepG2 cells, the R10 was 36.0 [drug]/Cmax, the “R10 IFN” value is 34.8 [drug]/Cmax, the “R10 TNF” value was 31.5 [drug]/Cmax and the “R10 TNF/IFN” value was 25.3 [drug]/Cmax. Further, in the data set on HepG2 cells, the Deltadiff is −15.3. Also, in the data set on HepG2 cells (HepG2, 24 h), the “cytotoxic interaction of drug with TNF” value is recorded as “TNF significantly enhanced the cytotoxicity” and the “cytotoxicity of drug on its own” value is given as “statistically significant increase in LDH release”. Further, in the data set with HepG2 cells (HepG2, 24 h, TNF and IFN 10 ng/ml each), the “effect of IFN coexposure on the drug/TNF cytotoxic interaction” value is recorded as “coexposure to IFN enhanced the cytotoxic interaction”. Besides, in the data set on HepG2 cells (setting [4]), the D10 (LDH rise of at least 10 points, yes/no) is greater than 10%. In addition, the Emax in the data set on HepG2 cells (setting [5]) was determined as 111%. Besides, in the data set on HepG2 cells (NA = no significant increase), the EC10 was 35.8 [drug]/Cmax. In the data set on HepG2 cells (value corresponding to 10% of Delta, with IFN 10 ng/ml, NA = no significant increase), the “EC10 IFN” value is 34.1 [drug]/Cmax. For the same molecule, in the data set on HepG2 cells (setting [6]), the “EC10 TNF” value is 30.5 [drug]/Cmax and the “EC10 TNF/IFN” value was 24.1 [drug]/Cmax. The Estimated probability in data set [3] is given as 0.961.

Regarding `CC(=O)Oc1ccccc1C(=O)O` [Aspirin], in data set [1], the True classification result is “IDILI−” and the IDILI liability entry is “IDILI−”. For the same molecule, in data set [2], the Cmax was 47000 nM. In the data set with HepG2 cells, the R10 was 0 [drug]/Cmax, the “R10 IFN” value was 0 [drug]/Cmax, the “R10 TNF” value was 0 [drug]/Cmax and the “R10 TNF/IFN” value is 0 [drug]/Cmax. Further, the Deltadiff in the data set on HepG2 cells is reported as 0. For the same molecule, the Emax in the data set on HepG2 cells (setting [7]) was less than 10%. The Emax with HepG2 cells (setting [5]) is 11%. Further, the TNF change in the data set on HepG2 cells (categorical) is given as 0. For the same molecule, the Estimated probability in data set [3] is reported as 0.1445.

On to `CS(=O)(=O)c1ccc(C2=C(c3ccccc3)C(=O)OC2)cc1` [Rofecoxib], for which, in data set [1], the True classification entry was “IDILI−” and the IDILI liability entry is reported as “IDILI−”. Also, the Cmax in data set [2] is 1000 nM. In addition, in the data set with HepG2 cells, the R10 is 0 [drug]/Cmax, the “R10 IFN” value was 0 [drug]/Cmax, the “R10 TNF” value was 0 [drug]/Cmax and the “R10 TNF/IFN” value was 0 [drug]/Cmax. Besides, the Deltadiff with HepG2 cells came out at 0. For the same molecule, the Emax in the data set on HepG2 cells (setting [7]) was less than 10%. Besides, the Emax in the data set with HepG2 cells (setting [5]) came to 12.2%. Besides, the TNF change with HepG2 cells (categorical) is given as 0. Besides, the Estimated probability in data set [3] is recorded as 0.1278.

`O=C(O)[C@H]1/C(=C/CO)O[C@@H]2CC(=O)N21` [Clavulanate]: in data set [1], the True classification entry is reported as “IDILI+” and the IDILI liability entry is on record as “IDILI+”. The “pattern of liver injury in humans” value in data set [1] (human patients) was “cholestatic pattern of injury”. Besides, in data set [2], the Cmax is 12000 nM. In the data set on HepG2 cells, the R10 is 0 [drug]/Cmax, the “R10 IFN” value is 0 [drug]/Cmax, the “R10 TNF” value was 0 [drug]/Cmax and the “R10 TNF/IFN” value is 0 [drug]/Cmax. Further, the Deltadiff in the data set with HepG2 cells was 3.1. For the same molecule, in the data set with HepG2 cells (HepG2, 24 h), the “cytotoxic interaction of drug with TNF” value was “interacted only weakly with TNF” and the “cytotoxicity of drug on its own” value is reported as “caused no cytotoxicity on their own”. Also, the “cytotoxic interaction of drug with TNF” value in the data set with HepG2 cells (HepG2, 24 h, listed as clavulanate) is given as “synergized with TNF to cause cytotoxicity; also recorded: small but statistically significant”. Further, in the data set with HepG2 cells (setting [7]), the Emax was less than 10%. For the same molecule, the Emax in the data set with HepG2 cells (setting [5]) is 17.4%. Also, the TNF change in the data set with HepG2 cells (categorical) is recorded as 0. In addition, the “classification by the best-performing model” value in data set [3] (optimal cutoff) was “correctly as IDILI1”. Also, the Estimated probability in data set [3] is on record as 0.9509.
